Read-outs that look alike come from different tables or passages of the source.
Tests used:
PDE3A recombinant enzyme = PDE3A recombinant enzyme (Homo sapiens (Human), UniProt Q14432); test: In vitro assay of inhibitory activity against PDE 3A enzyme (FP, FAM-cAMP); assay type: biochemical
Experimental: 1. In Vitro Assay of the Inhibitory Activity of Compounds Against PDE 3A and PDE 4B2 Enzymes
• Envision 2104 Multilabel Reader (PerkinElmer) • Black 96-well Plate (Cat #6005540, PerkinElmer) • PDE3A Assay Kit (BPS, Cat. 79736), PDE4B2 Assay Kit (BPS, Cat. 60343) • PDE3A recombinant enzyme • PDE4B2 recombinant enzyme • FAM-Cyclic-3′, 5′-AMP • PDE assay buffer • Binding Agent • Binding Agent Diluent (cAMP)
• 1) Prepare FAM cAMP working solution: 20 μL of FAM-Cyclic-3′, 5′-AMP stock was added to 1980 μL of PDE assay buffer. The mixture was added to all wells at 25 μL/well. • 2) Prepare compound solution: the test compounds were dissolved in DMSO to make a 10 mM stock solution. The compound stock solution was diluted in DMSO to a 100× Top Dose diluent. 5 μL of 100× Top Dose diluent was added to 45 μL of PDE assay buffer to prepare a compound Top Dose working solution. Then, the compound working solution was subjected to double dilution with PDE assay buffer containing 10% DMSO to prepare compound working solutions of various concentrations. The compound working solutions were added to compound wells at 5 μL/well. 5 μL of PDE assay buffer containing 10% DMSO was added to each control well. • 3) Prepare PDE enzyme solution: PDE3A and PDE4B2 enzyme stock solutions were diluted to 150 pg/μL and 50 pg/μL, respectively, with PDE assay buffer, and added to all compound wells and Vehicle control wells at 20 μL/well. 20 μL of PDE assay buffer was added to Blank control wells. • 4) React at room temperature for 1 h. • 5) Prepare Binding Agent: 80 μL of binding agent was added to 7920 μL of binding agent diluent, and the mixture was mixed well and added to all wells at 100 μL/well. • 6) React at room temperature for 1 h. • 7) Read FP on Envision. • 8) Calculation formula for original data:
[formula] • FPS=sample FP • FPV=Vehicle control FP • FPB=Blank control FP.
Nonlinear regression analysis of log[dose]-inhibition rate was performed by graphpad and IC50 was calculated.

[1] = system: methacholine-induced bronchoconstriction; test: Inhibitory effect on methacholine-induced bronchoconstriction in guinea pigs (WBP, Penh); assay type: in vivo, guinea pig; settings: male guinea pigs, oral dose of 10 mg/kg, 6 h after drug exposure
Experimental: 2. Study on the Inhibitory Effect of Compounds on Methacholine-Induced Bronchoconstriction in Guinea Pigs
Male guinea pigs were selected as test animals in this study. The drug-treated group was orally administered with RPL554, compound 1 and compound 7 at a dose of 10 mg/kg, respectively, and the control group was administered with an equal dose of solvent. The animals were placed in a WBP instrument aerosol chamber 2 h, 4 h and 6 h after drug exposure. After the animals were adapted, they inhaled 300 μL of […] solution (0.5 mg/mL) by nebulization. After the end of the methacholine (Mch) exposure, Penh values were recorded continuously for 7 minutes. The percentage of bronchoconstriction inhibition by the compounds was calculated based on the Penh values.

[2] = system: guinea pig tracheal rings; test: Experiment on guinea pig tracheal rings (carbachol constriction); settings: 10 μM single dose; for OT50 (50% inhibition onset time) / RT50 (50% inhibition recovery time): carbachol-constricted tracheal rings; for inhibition at 10 µM: Cavia porcellus, 6.75 h
Experimental: 3. Experiment on Guinea Pig Tracheal Rings
Experimental method: guinea pig tracheal rings were placed in a specific culture medium (Krebs-Henseleit) and balanced under 1 g tension for 40 minutes; carbachol was added in an amount sufficient to achieve 100% constriction of the tracheal rings; […] contractile tension of the tracheal rings.

[3] = cited from earlier work
[4] = in vivo; cited from earlier work
PDE4 = settings: cited from earlier work
[5] = class symbols, read-out: PDE 3A IC50
[6] = values in text, read-out: PDE 3 IC50

Chain of PDE3A recombinant enzyme (Q14432 whole entry): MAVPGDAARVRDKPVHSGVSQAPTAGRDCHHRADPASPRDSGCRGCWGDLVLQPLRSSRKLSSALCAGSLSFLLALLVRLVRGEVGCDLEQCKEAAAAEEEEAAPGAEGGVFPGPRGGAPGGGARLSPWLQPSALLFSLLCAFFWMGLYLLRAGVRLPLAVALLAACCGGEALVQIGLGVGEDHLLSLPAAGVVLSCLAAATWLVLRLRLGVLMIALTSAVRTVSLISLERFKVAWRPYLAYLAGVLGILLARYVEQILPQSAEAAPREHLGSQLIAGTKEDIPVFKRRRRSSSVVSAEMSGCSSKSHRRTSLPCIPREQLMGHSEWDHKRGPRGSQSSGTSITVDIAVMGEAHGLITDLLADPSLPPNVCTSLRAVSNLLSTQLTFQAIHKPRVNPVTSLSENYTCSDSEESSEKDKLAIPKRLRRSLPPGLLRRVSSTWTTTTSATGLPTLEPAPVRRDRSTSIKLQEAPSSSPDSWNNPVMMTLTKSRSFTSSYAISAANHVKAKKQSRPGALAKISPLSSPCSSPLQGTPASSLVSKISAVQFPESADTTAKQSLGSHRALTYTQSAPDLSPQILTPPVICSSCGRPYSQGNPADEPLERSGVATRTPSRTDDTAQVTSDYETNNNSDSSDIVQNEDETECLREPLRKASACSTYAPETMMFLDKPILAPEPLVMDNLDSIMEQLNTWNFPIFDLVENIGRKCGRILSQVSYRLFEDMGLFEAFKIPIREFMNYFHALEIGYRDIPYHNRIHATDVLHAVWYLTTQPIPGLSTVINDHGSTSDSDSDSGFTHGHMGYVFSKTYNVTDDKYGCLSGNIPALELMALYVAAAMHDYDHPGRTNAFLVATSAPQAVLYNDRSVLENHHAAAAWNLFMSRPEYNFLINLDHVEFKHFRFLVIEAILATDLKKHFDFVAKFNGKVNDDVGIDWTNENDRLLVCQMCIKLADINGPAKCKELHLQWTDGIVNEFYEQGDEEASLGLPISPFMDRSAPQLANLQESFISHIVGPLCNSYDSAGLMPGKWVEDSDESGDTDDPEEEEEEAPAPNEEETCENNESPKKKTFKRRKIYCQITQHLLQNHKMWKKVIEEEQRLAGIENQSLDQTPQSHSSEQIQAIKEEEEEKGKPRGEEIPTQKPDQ

Structure (SMILES)	IC50 (PDE3A recombinant enzyme; [5]) [nM]	IC50 (PDE3A recombinant enzyme; [6]) [nM]	Inhibition rate on bronchoconstriction [1] [%]	OT50 (50% inhibition onset time) [2] [min]	RT50 (50% inhibition recovery time) [2] [h]	inhibition at 10 µM [2] [%]	also measured
[2H]C([2H])([2H])Oc1cc2c(cc1OC)-c1c/c(=N\c3c(C)cc(C)cc3C)n(CCNC(N)=O)c(=O)n1CC2 [Compound 1, (E)-1-(2-(2-(mesitylimino)-10-methoxy-9-(methoxy-d3)-4-oxo-6,7-dihydro-2H-pyrimido[6,1-a]isoquinolin-3(4H)-yl)ethyl)urea]	< 50	0.15	69				
COc1cc2c(cc1OC)-c1c/c(=N\c3c(C)cc(C(F)(F)F)cc3C)n(CCNC(N)=O)c(=O)n1CC2 [Compound 2, (E)-1-(2-(2-((2,6-dimethyl-4-(trifluoromethyl)phenyl)imino)-9,10-dimethoxy-4-oxo-6,7-dihydro-2H-pyrimido[6,1-a]isoquinolin-3(4H)-yl)ethyl)urea]							IC50 (PDE3A recombinant enzyme): 50 to 100 nM
COc1cc2c(cc1OC)-c1c/c(=N\c3c(C)cc(C4CC4)cc3C)n(CCNC(N)=O)c(=O)n1CC2 [Compound 3, (E)-1-(2-(2-((4-cyclopropyl-2,6-dimethylphenyl)imino)-9,10-dimethoxy-4-oxo-6,7-dihydro-2H-pyrimido[6,1-a]isoquinolin-3(4H)-yl)ethyl)urea]	< 50						
COc1cc2c(cc1OC)-c1c/c(=N\c3c(C)cc(F)cc3C)n(CCNC(N)=O)c(=O)n1CC2 [Compound 5, (E)-1-(2-(2-((4-fluoro-2,6-dimethylphenyl)imino)-9,10-dimethoxy-4-oxo-6,7-dihydro-2H-pyrimido[6,1-a]isoquinolin-3(4H)-yl)ethyl)urea]	50 to 100						
[2H]C([2H])([2H])Oc1cc2c(cc1OC)CCn1c-2c/c(=N\c2c(C)cc(C)cc2C)n(CCNC(N)=O)c1=O [Compound 7, (E)-1-(2-(2-(mesitylimino)-9-methoxy-10-(methoxy-d3)-4-oxo-6,7-dihydro-2H-pyrimido[6,1-a]isoquinolin-3(4H)-yl)ethyl)urea]	< 50	0.17	80	19.97	>6.75	75.9	
COc1cc2c(cc1OC)-c1c/c(=N\c3c(C)cc(C)cc3C)n(CCNC(N)=O)c(=O)n1CC2 [RPL554, reference compound]			35	25.51	>6.75	56.7	solubility [3]: poor solubility; plasma clearance [4]: high plasma clearance; PDE4 inhibitory activity (PDE4): unsatisfactory
